Data published in US20250241916A1, “TYROSINE KINASE INHIBITORS” (Nuvectis Pharma, Inc., priority 2022, published 2025).

Legend:
[1] = target: T1, full-length human BTK (GST-BTK) (Homo sapiens, UniProt Q06187); assay: Off-chip Mobility Shift Assay (MSA), tyrosine kinase inhibition, BTK; type: biochemical; settings: for inhibition at 0.5 µM: 0.5 μM compound
T1 construct: made in house
Method: (§1) Compound A was dissolved in dimethylsulfoxide (DMSO), and further diluted with assay buffer to a final concentration of 0.5 μmol/L. Reference compounds for assay control were prepared similarly. For BTK inhibition studies, full-length human BTK [2-659 (end) amino acids of accession number NP_000052] was expressed as N-terminal GST-fusion protein (103 kDa) using baculovirus expressionsystem. GST-BTK was purified by using glutathione sepharose chromatography. For BTK[C481S] inhibition studies, full-length human BTK [2-659 (end) amino acids and C481S of accession number NP_000052] was expressed as N-terminal GST-fusion protein (103 kDa) using baculovirusexpression system. GST-BTK[C481S] was purified by using glutathione sepharosechromatography.
(§2) A 4× Substrate/ATP/Metal solution was prepared with buffer (20 mmol/L HEPES, 0.01% Triton X-100, 5 mmol/L DTT, pH 7.5), and a 2× kinase solution was also prepared with buffer (20 mmol/L HEPES, 0.01% Triton X-100, 1 mmol/L DTT, pH 7.5). 5 μL of 4× compound solution, 5 μL of 4× Substrate/ATP/Metal solution, and 10 μL of 2× kinase solution were mixed and incubated in a well of polypropylene 384 well microplate for 1 hour at room temperature. 70 μL of Termination Buffer (QuickScout Screening Assist MSA) was added to the well. The reaction mixture was applied to LabChip™ system, and the product and substrate peptide peaks were separated and quantitated. The kinase reaction was evaluated by the product ratio calculated from peak heights of product (P) and substrate (S) peptides (P/(P+S)).
(§3) The readout value of reaction control (complete reaction mixture) was set as a 0% inhibition, and the readout value of background (Enzyme(−)) was set as a 100% inhibition, then the percent inhibition of each test solution was calculated (Table 2).

[2] = target: T2, full-length human BTK[C481S] (GST-BTK[C481S]) (Homo sapiens, UniProt Q06187, C481S); assay: Off-chip Mobility Shift Assay (MSA), tyrosine kinase inhibition, BTK[C481S]; type: biochemical; settings: for inhibition at 0.5 µM: 0.5 μM compound
T2 construct: made in house
Method: as §1, §2, §3

[3] = system: pan cancer squamous lines; assay: Sensitivity of cancer cell line panel (102 cell lines) to compound; type: cell-based; settings: FIG. 1, p<0.05
Source text: Examples of squamous cell carcinomas contemplated herein may include, but are not limited to, cutaneous squamous cell carcinoma, esophageal squamous cell carcinoma, head and neck squamous cell carcinoma, squamous cell carcinoma of the vulva, and lung squamous cell carcinoma.
A shift to the left represents increased sensitivity. Size of circles represents number of cell lines with alteration (minimum of cell lines per alteration).

[4] = system: Cal27 (tongue squamous cell carcinoma) xenograft; assay: Cal27 mouse xenograft model, antitumor efficacy
Method: (§4) Prior to the in-life phase of the study, the animals were weighed and examined for signs of physical disorder. […] Tumor reads were collected every 2 days up to 28 days, starting treatment at 100 mm^3 tumor volume and ending at 2000 mm^3 tumor volume. A t-test was applied to determine the significance of differences in tumor volumes.
(§5) Dose materials were prepared weekly in aliquots and stored frozen at −20° C. until dosing. For enrollment of mice into study, subcutaneous tumor volumes were monitored daily until reaching a minimum palpable tumor volume (˜100 mm3 by caliper) in the required number of mice. […] Following randomization and study cohort assignment, each dose cohort was treated according to dosage and schedule. Mice were euthanized when study end points were reached.
(§6) Tumor volume measurements were performed every 2 days (up to 3 times per week) using a calibrated caliper. Tumor volumes were determined using the formula length (mm)×width (mm)×height (mm)×0.50.
(§7) A tumor volume humane endpoint was reached when a 20% loss in body weight (excluding tumor weight) was observed over a week, or a 15% loss in body weight over 2 to 3 day period, or if a body condition score less than 2 (Body Condition Scoring for scoring guide), or the tumor weight exceeded 10% of the non-tumor bearing body weight (tumor weight was calculated based on tumor height×length×width×0.50×density of 1 g/cm^3) or when the tumor exceeded 2000 mm^3 in size. Body weight measurements were performed every 2 days (up to 3 times per week) during the 28-day treatment period to coincide with tumor volume measurement schedule. A humane endpoint was reached when body weight loss exceeded 20%.
(§8) The abbreviation RTV28 (relative tumor volume, day 28)=[avg. tumor volume D28]/[avg. tumor volume at baseline]. The abbreviation TGI % (percent tumor growth inhibition)=(1−[RTV28 of the treated group]/[RTV28 vehicle])×100.

[5] = system: KYSE70 (esophageal squamous cell carcinoma) xenograft; assay: KYSE70 mouse xenograft model, antitumor efficacy; settings: for Avg. Baseline Tumor Volume: 40 mg/kg
Method: as §4, §5, §6, §7, §8

[6] = 40 mg/kg oral once daily, 28 days, p≤0.001 vs vehicle on Day 27
[7] = (1-RTV28 treated/RTV28 vehicle)x100, 40 mg/kg oral once daily
[8] = Day 27, 40 mg/kg oral once daily
[9] = Day 28, 40 mg/kg oral once daily
[10] = avg. tumor volume D28 / baseline, 40 mg/kg oral once daily

T1 sequence (Q06187 2-659): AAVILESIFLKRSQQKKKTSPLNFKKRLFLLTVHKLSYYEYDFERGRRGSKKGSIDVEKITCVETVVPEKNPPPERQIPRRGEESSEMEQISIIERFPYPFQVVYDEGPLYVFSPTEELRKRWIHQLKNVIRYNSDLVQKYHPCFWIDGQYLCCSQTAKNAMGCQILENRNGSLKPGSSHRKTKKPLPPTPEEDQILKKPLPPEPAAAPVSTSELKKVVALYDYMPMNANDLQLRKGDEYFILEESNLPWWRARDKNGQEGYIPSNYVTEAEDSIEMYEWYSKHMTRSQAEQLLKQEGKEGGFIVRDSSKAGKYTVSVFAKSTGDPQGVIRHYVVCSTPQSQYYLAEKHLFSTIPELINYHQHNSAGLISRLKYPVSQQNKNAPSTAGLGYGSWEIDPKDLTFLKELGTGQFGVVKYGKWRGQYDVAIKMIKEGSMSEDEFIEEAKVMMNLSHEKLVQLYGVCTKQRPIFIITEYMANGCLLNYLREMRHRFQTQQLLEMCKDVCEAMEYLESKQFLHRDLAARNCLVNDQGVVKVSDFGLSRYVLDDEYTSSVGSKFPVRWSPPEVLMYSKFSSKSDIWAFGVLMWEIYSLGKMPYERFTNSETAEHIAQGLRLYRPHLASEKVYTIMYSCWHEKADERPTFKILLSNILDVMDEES
T2 sequence (Q06187 2-659 C481S): as the sequence (Q06187 2-659) above, with C480S counted along it

Structure (SMILES): COc1cc(-c2nn(CCN3CCC(N(C)C)CC3)c3ncnc(N)c23)ccc1NC(=O)OC(C)(C)C [Compound A, tert-Butyl (4-(4-amino-1-(2-(4-(dimethylamino)piperidin-1-yl)ethyl)-1H-pyrazolo[3,4-d]pyrimidin-3-yl)-2-methoxyphenyl)carbamate]
- IC50 [1]: 12.5 nM
- inhibition at 0.5 µM [1]: 96.9%
- IC50 [2]: 16.3 nM
- inhibition at 0.5 µM [2]: 95.1%
- sensitivity of pan cancer squamous carcinomas (10logIC50) [3]: high sensitivity
- tumor growth inhibition [4, 6]: substantial TGI
- Tumor Growth Inhibition (TGI) [4, 7]: 86%
- average tumor volume on Day 27 [4, 8]: 91.4 mm3
- mean percent increase from baseline in body weight [4, 8]: 2.1%
- Avg. Day 28. Tumor Volume [4, 9]: 91.4 mm^3
- Relative Tumor Volume (RTV28) [4, 10]: 0.78
- Avg. Baseline Tumor Volume ([4]; baseline, 40 mg/kg oral once daily): 116.2 mm^3
- tumor growth inhibition [5, 6]: substantial tumor growth inhibition
- Tumor Growth Inhibition (TGI) [5, 7]: 95%
- average tumor volume on Day 27 [5, 8]: 31.5 mm^3
- mean percent increase from baseline in body weight [5, 8]: 2.0%
- decrease in tumor volume from baseline ([5]; Day 27 vs baseline, 40 mg/kg oral once daily): 71%
- Avg. Day 28. Tumor Volume [5, 9]: 31.5 mm^3
- Relative Tumor Volume (RTV28) [5, 10]: 0.29
- Avg. Baseline Tumor Volume ([5]; 40 mg/kg oral once daily): 109.8 mm^3
- Avg. Baseline Tumor Volume ([5]; 40 mg/kg oral once daily, listed as Cmpd A): 106.0 mm^3

Structure (SMILES): CNC1CCN(CCn2nc(-c3ccc(NC(=O)OC(C)(C)C)c(OC)c3)c3c(N)ncnc32)CC1 [Compound B, tert-butyl (4-(4-amino-1-(2-(4-(methylamino)piperidin-1-yl)ethyl)-1H-pyrazolo[3,4-d]pyrimidin-3-yl)-2-methoxyphenyl) carbamate]
- IC50 [1]: 12.5 nM
- inhibition at 0.5 µM [1]: 95.6%
- IC50 [2]: 16.3 nM
- inhibition at 0.5 µM [2]: 97.5%
